Laboratory results: patent US20260085082A1, “KDM1A INHIBITORS FOR THE TREATMENT OF DISEASE” (Imago Biosciences, Inc., priority 2022, published 2026)
pIC50: −log10 of the molar value. Read-outs that look alike come from different tables or passages of the source.

Legend:
LSD1 = LSD1 (Homo sapiens, UniProt O60341); assay: LSD1 10-dose IC50 fluorescence coupling enzyme assay (HRP/Amplex Red, resorufin); assay type: biochemical; details: 10 M histone H3(1-21)K4me2 peptide substrate; 3-fold serial dilution in duplicate starting at 100 μM
Experimental: Compounds were tested in a 10-dose IC50 mode fluorescence coupling enzyme assay with 3-fold serial dilution in duplicate starting at 100 μM. The production of FAD-dependent H2O2 as a result of demethylase activity of LSD1 on […] histone H3(1-21)K4me2 peptide substrate was measured by coupling with HRP and Amplex Red to yield resorufin (fluorescence measured at Ex/Em=535/590 nm on EnVision, Perkin Elmer).

MV4;11 cells = assay: Cell Titer-Glo Luminescent Cell Viability Assay, cell growth inhibition against MV4;11 cells; assay type: cell-based; details: Homo sapiens
Experimental: Cell growth inhibition against MV4;11 cells was confirmed for the synthetic compounds. The Cell Titer-Glo Luminescent Cell Viability Assay (Promega, USA) was used to determine the number of viable cells in culture based on quantitation of the ATP present, which signals the presence of metabolically active cells. This assay was run in a 96-well plate format arrayed in a 10-point dose curve, ranging from 0 to 50 μM with 4-fold dilutions for each compound. Cells are seeded on Day 0 at 3750 cells per well. At Day 5, a portion of each well is assayed for viability according to the Cell Titer-Glo protocol. Briefly, cells/plates were centrifuged at 1100×g for 5 minutes. 100 μL of media was removed from each well and replaced with 100 μL of CellTiter-Glo. The plates were shaken at room temperature for 10 minutes and measured on a luminescence plate reader. Another portion of each well from the Day 5 plate is used to seed a new 96 plate containing fresh compound and media set up in the equivalent 10-point dose curve array in order to continue the cell growth inhibition assay for another 5 days. A final timepoint is collected at Day 10 using the Cell Titer-Glo protocol. Luminescence was detected on an EnVision® Multilabel Plate Reader (Perkin Elmer, Waltham, Mass.) and IC50 determination was made using Graph Pad Prism software.

[1] = MV4-11, MV4;11 cells, Day 10 (re-seeded at Day 5 with fresh compound), 10-point dose curve 0 to 50 μM, read-out: Cell Titer Glo IC50 (10 d)
[2] = MV4-11, 120 h, MV4;11 cells, Day 5, 10-point dose curve 0 to 50 μM, read-out: Cell Titer Glo IC50 (5 d)

SMILES | pIC50 (LSD1) | pIC50 (MV4;11 cells; [1]) | pIC50 (MV4;11 cells; [2]) | pIC50 (MV4;11 cells; MV4;11 cells, Day 10 (re-seeded at Day 5 with fresh compound), 10-point dose curve 0 to 50 μM, read-out: Cell Titer Glo IC50 (10 d))
CN1CCN(c2ccc(-n3nc(C(=O)N4CCC[C@@H](N)C4)cc3-c3ccc(C#N)c(F)c3)cc2)CC1=O [Example 50, (R)-4-(3-(3-aminopiperidine-1-carbonyl)-1-(4-(4-methyl-3-oxopiperazin-1-yl)phenyl)-1H-pyrazol-5-yl)-2-fluorobenzonitrile] | > 6.30 | > 6.30 | – | –
COC1CCN(c2ccc(-n3nc(C(=O)N4CCC[C@@H](N)C4)cc3-c3ccc(C#N)c(F)c3)nc2)CC1 [Example 53, (R)-4-(3-(3-aminopiperidine-1-carbonyl)-1-(5-(4-methoxypiperidin-1-yl)pyridin-2-yl)-1H-pyrazol-5-yl)-2-fluorobenzonitrile 2,2,2-trifluoroacetate] | 5.00 to 6.00 | > 6.30 | – | –
CN1CCN(c2ccc(-n3nc(C(=O)N4CCC[C@@H](N)C4)cc3-c3ccc(C#N)c(F)c3)nc2)CC1 [Example 54, (R)-4-(3-(3-aminopiperidine-1-carbonyl)-1-(5-(4-methylpiperazin-1-yl)pyridin-2-yl)-1H-pyrazol-5-yl)-2-fluorobenzonitrile 2,2,2-trifluoroacetate] | 5.00 to 6.00 | 5.00 to 6.00 | – | –
COC1CCN(c2ccc(-n3nc(-c4ccc(C#N)c(F)c4)cc3C(=O)N3CCC[C@@H](N)C3)cc2)CC1 [Example 57, (R)-4-(5-(3-aminopiperidine-1-carbonyl)-1-(4-(4-methoxypiperidin-1-yl)phenyl)-1H-pyrazol-3-yl)-2-fluorobenzonitrile 2,2,2-trifluoroacetate] | > 6.30 | 5.00 to 6.00 | – | –
CN1CCN(c2ccc(-n3nc(-c4ccc(C#N)c(F)c4)cc3C(=O)N3CCC[C@@H](N)C3)cc2)CC1 [Example 58, (R)-4-(5-(3-aminopiperidine-1-carbonyl)-1-(4-(4-methylpiperazin-1-yl)phenyl)-1H-pyrazol-3-yl)-2-fluorobenzonitrile 2,2,2-trifluoroacetate] | > 6.30 | > 6.30 | – | –
CN1CCN(c2ccc(-n3nc(C(=O)N4CCC[C@H](N)C4)cc3-c3ccc(C#N)c(F)c3)cc2)CC1 [Example 59, (S)-4-(3-(3-aminopiperidine-1-carbonyl)-1-(4-(4-methylpiperazin-1-yl)phenyl)-1H-pyrazol-5-yl)-2-fluorobenzonitrile] | > 6.30 | > 6.30 | 5.00 to 6.00 | –
CN1CCN(c2ccc(-n3nc(C(=O)N4CCC[C@@H](N)C4)cc3-c3ccc(C#N)c(F)c3)cc2)CC1 [Example 60, (R)-4-(3-(3-aminopiperidine-1-carbonyl)-1-(4-(4-methylpiperazin-1-yl)phenyl)-1H-pyrazol-5-yl)-2-fluorobenzonitrile] | > 6.30 | > 6.30 | 6.00 to 6.30 | –
N#Cc1ccc(-c2cc(C(=O)N3CCC[C@H](N)C3)nn2-c2ccc(N3CCCC3)cc2)cc1F [Example 61, (S)-4-(3-(3-aminopiperidine-1-carbonyl)-1-(4-(pyrrolidin-1-yl)phenyl)-1H-pyrazol-5-yl)-2-fluorobenzonitrile 2,2,2-trifluoroacetate] | > 6.30 | > 6.30 | > 6.30 | –
N#Cc1ccc(-c2cc(C(=O)N3CCC[C@@H](N)C3)nn2-c2ccc(N3CCCC3)cc2)cc1F [Example 62, (R)-4-(3-(3-aminopiperidine-1-carbonyl)-1-(4-(pyrrolidin-1-yl)phenyl)-1H-pyrazol-5-yl)-2-fluorobenzonitrile 2,2,2-trifluoroacetate] | > 6.30 | > 6.30 | – | –
COC1CCN(c2ccc(-n3nc(C(=O)N4CCC[C@H](N)C4)cc3-c3ccc(C#N)c(F)c3)cc2)CC1 [Example 63, (S)-4-(3-(3-aminopiperidine-1-carbonyl)-1-(4-(4-methoxypiperidin-1-yl)phenyl)-1H-pyrazol-5-yl)-2-fluorobenzonitrile 2,2,2-trifluoroacetate] | > 6.30 | > 6.30 | 6.00 to 6.30 | –
Cn1cc(-c2ccc(-n3nc(C(=O)N4CCC[C@H](N)C4)cc3-c3ccc(C#N)c(F)c3)cc2)cn1 [Example 65, (S)-4-(3-(3-aminopiperidine-1-carbonyl)-1-(4-(1-methyl-1H-pyrazol-4-yl)phenyl)-1H-pyrazol-5-yl)-2-fluorobenzonitrile 2,2,2-trifluoroacetate] | > 6.30 | > 6.30 | 6.00 to 6.30 | –
Cn1cc(-c2ccc(-n3nc(C(=O)N4CCC[C@@H](N)C4)cc3-c3ccc(C#N)c(F)c3)cc2)cn1 [Example 66, (R)-4-(3-(3-aminopiperidine-1-carbonyl)-1-(4-(1-methyl-1H-pyrazol-4-yl)phenyl)-1H-pyrazol-5-yl)-2-fluorobenzonitrile 2,2,2-trifluoroacetate] | > 6.30 | > 6.30 | – | –
CN1CCN(c2ccc(-n3nc(C(=O)N4CCC[C@@H](N)C4)cc3-c3ccc(C#N)c(F)c3)c(F)c2)CC1=O [Example 68, (R)-4-(3-(3-aminopiperidine-1-carbonyl)-1-(2-fluoro-4-(4-methyl-3-oxopiperazin-1-yl)phenyl)-1H-pyrazol-5-yl)-2-fluorobenzonitrile] | > 6.30 | > 6.30 | – | –
N#Cc1ccc(-c2cc(C(=O)N3CCC[C@@H](N)C3)nn2-c2ccc(N3CCC(OCCCO)CC3)cc2)cc1F [Example 69, (R)-4-(3-(3-Aminopiperidine-1-carbonyl)-1-(4-(4-(3-hydroxypropoxy)piperidin-1-yl)phenyl)-1H-pyrazol-5-yl)-2-fluorobenzonitrile 2,2,2-trifluoroacetate] | > 6.30 | > 6.30 | – | –
COP(=O)(OC)OCCCOC1CCN(c2ccc(-n3nc(C(=O)N4CCC[C@@H](N)C4)cc3-c3ccc(C#N)c(F)c3)cc2)CC1 [Example 70, (R)-3-((1-(4-(3-(3-aminopiperidine-1-carbonyl)-5-(4-cyano-3-fluorophenyl)-1H-pyrazol-1-yl)phenyl)piperidin-4-yl)oxy)propyl dimethyl phosphate 2,2,2-trifluoroacetate] | > 6.30 | – | – | > 6.30
N#Cc1ccc(-c2cc(C(=O)N3CCC[C@@H](N)C3)nn2-c2ccc(N3CCS(=O)(=O)CC3)cc2)cc1F [Example 71, (R)-4-(3-(3-aminopiperidine-1-carbonyl)-1-(4-(1,1-dioxidothiomorpholino)phenyl)-1H-pyrazol-5-yl)-2-fluorobenzonitrile 2,2,2-trifluoroacetate] | > 6.30 | > 6.30 | – | –
N#Cc1ccc(-c2cc(C(=O)N3CCC[C@@H](N)C3)nn2-c2ccc(-c3cnc4c(c3)OCCO4)cc2)cc1F [Example 84, (R)-4-(3-(3-aminopiperidine-1-carbonyl)-1-(4-(2,3-dihydro-[1,4]dioxino[2,3-b]pyridin-7-yl)phenyl)-1H-pyrazol-5-yl)-2-fluorobenzonitrile 2,2,2-trifluoroacetate] | > 6.30 | > 6.30 | – | –
N#Cc1ccc(-c2cc(C(=O)N3CCC[C@@H](N)C3)nn2-c2ccc(-c3ccc4c(c3)OCCO4)cc2)cc1F [Example 85, (R)-4-(3-(3-aminopiperidine-1-carbonyl)-1-(4-(2,3-dihydrobenzo[b][1,4]dioxin-6-yl)phenyl)-1H-pyrazol-5-yl)-2-fluorobenzonitrile 2,2,2-trifluoroacetate] | > 6.30 | > 6.30 | – | –
COc1ccc(-n2cc(C(=O)N3CCC(N)CC3)c(-c3ccc(C#N)cc3)n2)cc1 [Example 86, 4-(4-(4-aminopiperidine-1-carbonyl)-1-(4-methoxyphenyl)-1H-pyrazol-3-yl)benzonitrile] | < 5.00 | – | < 5.00 | –
